Assay: sensory evaluation of saltiness intensity by expert panel, 1.0% sodium chloride solution
Type: in vivo
Procedure: Evaluation samples 1 to 10 were prepared by adding a cyclotene diluted solution (using propylene glycol as a solvent) to 1.0% sodium chloride solution to adjust the concentration of cyclotene in the sodium chloride solution as shown in the following Table 1. The amount of propylene glycol added was adjusted to be the same in all evaluation samples.
A panel of four experts conducted a sensory evaluation of the saltiness intensity of evaluation samples 1 to 10. The sensory evaluation was performed by the four experts, who scored each evaluation sample in 0.1 point increments based on the following evaluation scale using 1.0% sodium chloride solution, 1.025% sodium chloride solution and 1.05% sodium chloride solution as reference samples, and calculated the average score of the four experts. The four experts were previously trained to have a common understanding of the following saltiness intensity evaluation scale, such as the amount of saltiness intensity change required to cause a score change of 0.1 point.
• 0.0 points: saltiness intensity equivalent to 1.0% sodium chloride solution • 5.0 points: saltiness intensity equivalent to 1.025% sodium chloride solution • 10.0 points: saltiness intensity equivalent to 1.05% sodium chloride solution

CC1=C(O)C(=O)CC1 [cyclotene]
saltiness enhancement (in words): has a saltiness enhancing action

From patent US20250024872A1, “SALTY TASTE ENHANCER” (AJINOMOTO CO., INC., priority 2022, published 2025)
